Legend:
[1] = test system: PSMA-expressing LNCAP cancer xenografts; experiment: Biodistribution and tumor-to-background contrast ratios of 18F-labeled tracers; assay type: in vivo, mouse (NODSCID 1L2RγKO male mice)
Description: LNCap cell line was obtained from ATCC (LNCaP clone FGC, CRL-1740). It was established from a metastatic site of left supraclavicular lymph node of human prostatic adenocarcinoma. Cells were cultured in PRMI 1640 medium supplemented with 10% FBS, penicillin (100 U/mL) and streptomycin (100 μg/mL) at 37° C. in a humidified incubator containing 5% CO2. Cells grown to 80-90% confluence were then washed with sterile phosphate-buffered saline (1×PBS pH 7.4) and trypsinization. The collected cells number was counted with a Hausser Scientific (Horsham, Pa.) Hemacytometer.
Imaging and biodistribution experiments were performed using NODSCID 1L2RγKO male mice. Mice were anesthetized by inhalation with 2% isoflurane in oxygen, and implanted subcutaneously with 1×10^7 LNCaP cells behind left shoulder. Mice were imaged or used in biodistribution studies when the tumor grew up to reach 5-8 mm in diameter during 5-6 weeks.
PET imaging experiments were conducted using Siemens Inveon micro PET/CT scanner. Each tumor bearing mouse was injected 6-8 MBq of F-18 labeled tracer through the tail vein under anesthesia (2% isoflurane in oxygen). The mice were allowed to recover and roam freely in their cage. After 50 min, the mice were sedated again with 2% isoflurane in oxygen inhalation and positioned in the scanner. A 10-min CT scan was conducted first for localization and attenuation correction after segmentation for reconstructing the PET images. Then, a 10-min static PET imaging was performed to determined uptake in tumor and other organs. The mice were kept warm by a heating pad during acquisition. For imaging studies acquired at 2 h post-injection (p.i.), the mice were placed in the micro PET/CT scanner at 110 min p.i. Then, the CT and PET acquisitions were conducted as described above.
For biodistribution studies, the mice were injected with the radiotracer as described above. At predetermined time points (1 or 2 h), the mice was anesthetized with 2% isoflurane inhalation, and euthanized by CO2 inhalation. Blood was withdrawn immediately from the heart, and the organs/tissues of interest were collected. The collected organs/tissues were weighed and counted using an automatic gamma counter. The uptake in each organ/tissue was normalized to the injected dose using a standard curve, and expressed as the percentage of the injected dose per gram of tissue (% ID/g).

[2] = test system: PSMA-expressing prostate cancer; details: clinical trials, PSMA-expressing prostate cancer patients; cited from earlier work

Structure (SMILES) | Biodistribution Adrenal glands ([1]; 1 h) | Biodistribution Blood ([1]; 1 h) | Biodistribution Bone ([1]; 1 h) | Biodistribution Brain ([1]; 1 h) | Biodistribution Fat ([1]; 1 h) | Biodistribution Heart ([1]; 1 h) | Biodistribution Intestine ([1]; 1 h) | Biodistribution Kidneys ([1]; 1 h) | Biodistribution Liver ([1]; 1 h) | Biodistribution Lungs ([1]; 1 h) | Biodistribution Muscle ([1]; 1 h) | Biodistribution Pancreas ([1]; 1 h) | Biodistribution Spleen ([1]; 1 h) | Biodistribution Stomach ([1]; 1 h) | Biodistribution Testes ([1]; 1 h) | Biodistribution Tumor ([1]; 1 h) | Tumor:Blood contrast ratio ([1]; 1 h) | Tumor:Muscle contrast ratio ([1]; 1 h) | Tumor:kidney contrast ratio ([1]; 1 h) | further results
C[N+](C)(Cc1cn(CC(=O)NCCOCCOCCC(=O)N[C@@H](Cc2ccc3ccccc3c2)C(=O)NCCCC[C@H](NC(=O)N[C@@H](CCC(=O)O)C(=O)O)C(=O)O)nn1)C[B-](F)(F)[18F] [^18F-HTK01146] | 0.81 ± 0.25 % ID/g | 0.13 ± 0.08 % ID/g | 0.10 ± 0.07 % ID/g | 0.01 ± 0.01 % ID/g | 0.27 ± 0.14 % ID/g | 0.07 ± 0.02 % ID/g | 22.2 ± 2.79 % ID/g | 29.9 ± 25.0 % ID/g | 0.83 ± 0.34 % ID/g | 0.40 ± 0.13 % ID/g | 0.05 ± 0.01 % ID/g | 0.13 ± 0.11 % ID/g | 0.75 ± 0.36 % ID/g | 0.21 ± 0.12 % ID/g | 0.18 ± 0.05 % ID/g | 5.09 ± 1.10 % ID/g | 54.6 ± 38.5 | 117 ± 52.1 | 0.28 ± 0.22 | –
C[N+](C)(Cc1cn(Cc2ccc(C(=O)NCCCC[C@H](NC(=O)N[C@@H](CCC(=O)O)C(=O)O)C(=O)O)cn2)nn1)C[B-](F)(F)[18F] [^18F-HTK01130] | 1.46 ± 0.56 % ID/g | 0.58 ± 0.09 % ID/g | 0.22 ± 0.05 % ID/g | 0.04 ± 0.01 % ID/g | 0.39 ± 0.14 % ID/g | 0.21 ± 0.05 % ID/g | 0.31 ± 0.01 % ID/g | 63.3 ± 13.5 % ID/g | 1.26 ± 0.27 % ID/g | 0.75 ± 0.10 % ID/g | 0.20 ± 0.07 % ID/g | 0.31 ± 0.11 % ID/g | 0.95 ± 0.56 % ID/g | 0.09 ± 0.03 % ID/g | 0.30 ± 0.05 % ID/g | 4.44 ± 1.11 % ID/g | 7.60 ± 1.33 | 24.1 ± 8.79 | 0.07 ± 0.02 | Biodistribution Adrenal glands ([1]; 2 h): 1.08 ± 0.51 % ID/g; Biodistribution Blood ([1]; 2 h): 0.21 ± 0.10 % ID/g; Biodistribution Bone ([1]; 2 h): 0.20 ± 0.09 % ID/g; Biodistribution Brain ([1]; 2 h): 0.03 ± 0.01 % ID/g; Biodistribution Fat ([1]; 2 h): 0.32 ± 0.30 % ID/g; Biodistribution Heart ([1]; 2 h): 0.10 ± 0.04 % ID/g; Biodistribution Intestine ([1]; 2 h): 0.24 ± 0.11 % ID/g; Biodistribution Kidneys ([1]; 2 h): 48.2 ± 24.6 % ID/g; Biodistribution Liver ([1]; 2 h): 1.20 ± 0.30 % ID/g; Biodistribution Lungs ([1]; 2 h): 0.30 ± 0.10 % ID/g; Biodistribution Muscle ([1]; 2 h): 0.08 ± 0.03 % ID/g; Biodistribution Pancreas ([1]; 2 h): 0.20 ± 0.18 % ID/g; Biodistribution Spleen ([1]; 2 h): 0.39 ± 0.35 % ID/g; Biodistribution Stomach ([1]; 2 h): 0.05 ± 0.03 % ID/g; Biodistribution Testes ([1]; 2 h): 0.16 ± 0.10 % ID/g; Biodistribution Tumor ([1]; 2 h): 4.27 ± 0.65 % ID/g; Tumor:Blood contrast ratio ([1]; 2 h): 7.60 ± 1.33; Tumor:Muscle contrast ratio ([1]; 2 h): 24.1 ± 8.79; Tumor:kidney contrast ratio ([1]; 2 h): 0.07 ± 0.02
O=C(O)CC[C@H](NC(=O)N[C@@H](CCCCNC(=O)c1ccc(Cn2cc(C[n+]3ccc([B-](F)(F)[18F])cc3)nn2)nc1)C(=O)O)C(=O)O [^18F-PSMA PyrBF3] | 6.66 ± 2.33 % ID/g | 0.74 ± 0.15 % ID/g | 0.76 ± 0.57 % ID/g | 0.05 ± 0.01 % ID/g | 1.05 ± 0.49 % ID/g | 0.34 ± 0.08 % ID/g | 0.48 ± 0.22 % ID/g | 164 ± 50.2 % ID/g | 1.28 ± 0.18 % ID/g | 1.67 ± 0.47 % ID/g | 0.28 ± 0.07 % ID/g | 0.68 ± 0.50 % ID/g | 3.36 ± 1.08 % ID/g | 0.15 ± 0.03 % ID/g | 0.67 ± 0.27 % ID/g | 6.26 ± 0.82 % ID/g | 8.67 ± 1.74 | 23.5 ± 5.00 | 0.04 ± 0.02 | –
O=C([O-])CN1CCN(CC(=O)[O-])CCN(CC(=O)NCC2CCC(C(=O)N[C@@H](Cc3ccc4ccccc4c3)C(=O)NCCCC[C@H](NC(=O)N[C@@H](CCC(=O)O)C(=O)O)C(=O)O)CC2)CCN(CC(=O)[O-])CC1.[177Lu+3] (stereo partly shown) [PSMA-617 radiolabeled with Lu-177] | – | – | – | – | – | – | – | – | – | – | – | – | – | – | – | – | – | – | – | positive response [2]: > 50%

Now from value to compound, other results behind:

Biodistribution Adrenal glands ([1]; 1 h) | Biodistribution Blood ([1]; 1 h) | Biodistribution Bone ([1]; 1 h) | Biodistribution Brain ([1]; 1 h) | Biodistribution Fat ([1]; 1 h) | Biodistribution Heart ([1]; 1 h) | Biodistribution Intestine ([1]; 1 h) | Biodistribution Kidneys ([1]; 1 h) | Biodistribution Liver ([1]; 1 h) | Biodistribution Lungs ([1]; 1 h) | Biodistribution Muscle ([1]; 1 h) | Biodistribution Pancreas ([1]; 1 h) | Biodistribution Spleen ([1]; 1 h) | Biodistribution Stomach ([1]; 1 h) | Biodistribution Testes ([1]; 1 h) | Biodistribution Tumor ([1]; 1 h) | Tumor:Blood contrast ratio ([1]; 1 h) | Tumor:Muscle contrast ratio ([1]; 1 h) | Tumor:kidney contrast ratio ([1]; 1 h) | Structure (SMILES) | further results
2.89 ± 1.94 % ID/g | 0.89 ± 0.42 % ID/g | 0.34 ± 0.14 % ID/g | 0.04 ± 0.01 % ID/g | 0.83 ± 0.33 % ID/g | 0.31 ± 0.11 % ID/g | 13.0 ± 4.61 % ID/g | 73.9 ± 35.2 % ID/g | 1.14 ± 0.48 % ID/g | 1.21 ± 0.48 % ID/g | 0.36 ± 0.18 % ID/g | 0.30 ± 0.17 % ID/g | 2.67 ± 0.98 % ID/g | 0.37 ± 0.45 % ID/g | 0.74 ± 0.55 % ID/g | 14.0 ± 5.20 % ID/g | 17.1 ± 5.40 | 49.7 ± 28.5 | 0.21 ± 0.08 | C[N+](C)(Cc1cn(CC(=O)NC[C@H]2CC[C@H](C(=O)N[C@@H](Cc3ccc4ccccc4c3)C(=O)NCCCC[C@H](NC(=O)N[C@@H](CCC(=O)O)C(=O)O)C(=O)O)CC2)nn1)C[B-](F)(F)[18F] [^18F-HTK01157] | –
2.02 ± 0.56 % ID/g | 1.45 ± 1.15 % ID/g | 0.54 ± 0.14 % ID/g | 0.03 ± 0.00 % ID/g | 0.42 ± 0.30 % ID/g | 0.25 ± 0.06 % ID/g | 20.8 ± 4.79 % ID/g | 83.5 ± 35.7 % ID/g | 1.10 ± 0.28 % ID/g | 1.06 ± 0.23 % ID/g | 0.18 ± 0.03 % ID/g | 0.26 ± 0.08 % ID/g | 2.84 ± 1.51 % ID/g | 0.98 ± 0.12 % ID/g | 0.39 ± 0.13 % ID/g | 23.1 ± 8.26 % ID/g | 35.4 ± 27.6 | 145 ± 57.0 | 0.32 ± 0.11 | O=C(O)CC[C@H](NC(=O)N[C@@H](CCCCNC(=O)[C@H](Cc1ccc2ccccc2c1)NC(=O)[C@H]1CC[C@H](CNC(=O)Cn2cc(C[n+]3ccc([B-](F)(F)[18F])cc3)nn2)CC1)C(=O)O)C(=O)O [^18F-PSMA-617-PyrBF3] | –

Reference: patent publication US10882871B2, “18/19F-labelled compounds which target the prostate specific membrane antigen” (BRITISH COLUMBIA CANCER AGENCY BRANCH, priority 2016, dated 2021)
